Results reported in patent US9464106B2, “Oligonucleotides useful for detecting and analyzing nucleic acids of interest” (Exiqon A/S, priority 2002, dated 2016).
l = locked nucleic acid (LNA); d = 2'-deoxy (DNA)

system: yeast HSP78 (YDR258C) sequence; experiment: Duplex melting temperatures of HSP78 25-mer capture probes (UV spectrophotometer); conditions: 25-mer capture probe duplex with complementary target; design PM = perfectly matched, MM = single mismatch; DNA, LNA_T (T) or LNA_TC (TC) substituted

| Substance | Average duplex melting temp. |
| --- | --- |
| 12760 (DNA GACCTAAGAACATAAAGCTGGCAAT; DNA, backbone not given here; further chemistry not fully specified) [compound 12760] | 63.5 °C |
| 12761 (DNA AAATAGCAGCAATGGCCTCGTCTTG; DNA, backbone not given here; further chemistry not fully specified) [compound 12761] | 69.2 °C |
| 12762 (DNA ATAGCAGCAATGGCCTCGTCTTGGC; DNA, backbone not given here; further chemistry not fully specified) [compound 12762] | 72.7 °C |
| 12763 (DNA GCAATGGCCTCGTCTTGGCCAACGA; DNA, backbone not given here; further chemistry not fully specified) [compound 12763] | 72.8 °C |
| 12764 (DNA GATGAACTCAGGTGGATAGGATCTT; DNA, backbone not given here; further chemistry not fully specified) [compound 12764] | 64 °C |
| 12765 (DNA TCAGTTAGCCAATCCTTCGCTTCAT; DNA, backbone not given here; further chemistry not fully specified) [compound 12765] | 66.1 °C |
| 12766 (DNA GTTGCCATGGAGTTCAAAATCTGTC; DNA, backbone not given here) [compound 12766] | 65.8 °C |
| 12767 (DNA AGACGTACAGCATCAGAAATAGCAG; DNA, backbone not given here; further chemistry not fully specified) [compound 12767] | 66.6 °C |
| 12768 (DNA TTTGGTAGCACGACAAGCTTAGTAT; DNA, backbone not given here) [compound 12768] | 65.7 °C |
| 12769 (DNA ATAAAGCTGGCAATAGGTCTCTTTT; DNA, backbone not given here; further chemistry not fully specified) [compound 12769] | 63.6 °C |
| 12770 (DNA TTTTTCGGCCAAACGATCTTGAATT; DNA, backbone not given here; further chemistry not fully specified) [compound 12770] | 65 °C |
| 12771 (DNA CACTCTAACAGTTTCGCCGTTTCTA; DNA, backbone not given here) [compound 12771] | 66.3 °C |
| 12772 (DNA TCAATGGCCTTGCACCATATAATTG; DNA, backbone not given here) [compound 12772] | 64 °C |
| 12773 (DNA AAAACGACAGCATAAGGCTTTCTTC; DNA, backbone not given here; further chemistry not fully specified) [compound 12773] | 64.5 °C |
| 12774 (DNA ATTGACCTCAAAACTTTCTTGGATA; DNA, backbone not given here; further chemistry not fully specified) [compound 12774] | 61.8 °C |
| 12775 (DNA CCCAACTTTGTGTCGTTTAATAAAA; DNA, backbone not given here; further chemistry not fully specified) [compound 12775] | 61 °C |
| 12776 (DNA ACCATCATCACCCAACTTTGTGTCG; DNA at ACG, LNA at T, backbone not given here; further chemistry not fully specified) [compound 12776] | 79.2 °C |
| 12777 (DNA CAATGATCGTGTTACGGAAATCAAC; sugars from the 5' end dddlddlddlddldddddddldddd, backbone not given here; further chemistry not fully specified) [compound 12777] | 72.2 °C |
| 12778 (DNA TGGCCTAGGGAATCGGTCAGCTTAC; DNA at ACG, LNA at T, backbone not given here; further chemistry not fully specified) [compound 12778] | 76.9 °C |
| 12779 (DNA TTGGAAACATCGGGGTGCGCTTTTT; sugars from the 5' end lldddddddldddddlddddlllld, backbone not given here; further chemistry not fully specified) [compound 12779] | 76.7 °C |

| Substance | Average duplex melting temp. |
| --- | --- |
| 12780 (DNA GAAACATCGGGGTGCGCTTTTTCAA; DNA at ACG, LNA at T, backbone not given here; further chemistry not fully specified) [compound 12780] | 78 °C |
| 12781 (DNA GACAGCCTCAGTTAATTGGCCACCA; sugars from the 5' end dddddddlddddlddlldddddddd, backbone not given here; further chemistry not fully specified) [compound 12781] | 75.4 °C |
| 12782 (DNA CCGATTAAACGAGAGACAGTATGCT; sugars from the 5' end ddddlldddddddddddddldlddd, backbone not given here; further chemistry not fully specified) [compound 12782] | 72.2 °C |
| 12783 (DNA ATCAAATAGGAATTCAGCTAAAGCC; DNA at ACG, LNA at T, backbone not given here; further chemistry not fully specified) [compound 12783] | 66.3 °C |
| 12784 (DNA GACCTAAGAACATAAAGCTGGCAAT; sugars from the 5' end ddddldddddddldddddldddddd, backbone not given here; further chemistry not fully specified) [compound 12784] | 67.5 °C |
| 12785 (DNA AAATAGCAGCAATGGCCTCGTCTTG; DNA at ACG, LNA at T, backbone not given here; further chemistry not fully specified) [compound 12785] | 77.2 °C |
| 12786 (DNA ATAGCAGCAATGGCCTCGTCTTGGC; DNA at ACG, LNA at T, backbone not given here; further chemistry not fully specified) [compound 12786] | 80.1 °C |
| 12787 (DNA GCAATGGCCTCGTCTTGGCCAACGA; DNA at ACG, LNA at T, backbone not given here; further chemistry not fully specified) [compound 12787] | 80.8 °C |
| 12788 (DNA GATGAACTCAGGTGGATAGGATCTT; sugars from the 5' end ddlddddlddddldddlddddldld, backbone not given here; further chemistry not fully specified) [compound 12788] | 71 °C |
| 12789 (DNA TCAGTTAGCCAATCCTTCGCTTCAT; sugars from the 5' end ldddllddddddlddlldddllddd, backbone not given here; further chemistry not fully specified) [compound 12789] | 75.7 °C |
| 12790 (DNA GTTGCCATGGAGTTCAAAATCTGTC; sugars from the 5' end dllddddlddddlddddddldldld, backbone not given here; further chemistry not fully specified) [compound 12790] | 74.7 °C |
| 12791 (DNA AGACGTACAGCATCAGAAATAGCAG; DNA at ACG, LNA at T, backbone not given here; further chemistry not fully specified) [compound 12791] | 71.4 °C |
| 12792 (DNA TTTGGTAGCACGACAAGCTTAGTAT; sugars from the 5' end lllddlddddddddddddllddldd, backbone not given here; further chemistry not fully specified) [compound 12792] | 74.2 °C |
| 12793 (DNA ATAAAGCTGGCAATAGGTCTCTTTT; sugars from the 5' end dldddddldddddldddldldllld, backbone not given here; further chemistry not fully specified) [compound 12793] | 74.3 °C |
| 12794 (DNA TTTTTCGGCCAAACGATCTTGAATT; sugars from the 5' end ldllldddddddddddldlldddld, backbone not given here; further chemistry not fully specified) [compound 12794] | 71 °C |
| 12795 (DNA CACTCTAACAGTTTCGCCGTTTCTA; sugars from the 5' end dddldlddddddlddddddllldld, backbone not given here; further chemistry not fully specified) [compound 12795] | 75.5 °C |
| 12796 (DNA TCAATGGCCTTGCACCATATAATTG; DNA at ACG, LNA at T, backbone not given here; further chemistry not fully specified) [compound 12796] | 74 °C |
| 12797 (DNA AAAACGACAGCATAAGGCTTTCTTC; DNA at ACG, LNA at T, backbone not given here; further chemistry not fully specified) [compound 12797] | 71.7 °C |
| 12798 (DNA ATTGACCTCAAAACTTTCTTGGATA; DNA at ACG, LNA at T, backbone not given here; further chemistry not fully specified) [compound 12798] | 70.2 °C |
| 12799 (DNA CCCAACTTTGTGTCGTTTAATAAAA; DNA at ACG, LNA at T, backbone not given here; further chemistry not fully specified) [compound 12799] | 75.1 °C |
